Test results from patent publication US20190247353A1, “ACNE STRAIN-SELECTIVE ANTIBACTERIAL AGENT” (MOMOTANI JUNTENKAN CO., LTD., priority 2016, published 2019).

Test system: dominant strain in acne patients (RT4 strain and/or RT5 strain)
Experiment: MIC against dominant strain in acne patients
Format: cell-based, Propionibacterium acnes
Conditions: Cutibacterium acnes, in the pH range tested in the Examples
Description: The antibacterial activity of a test substance was determined based on the minimum inhibitory concentration (MIC). An MIC was measured according to the broth microdilution method which is the standard method of Japanese Society of Chemotherapy.
Each of strain suspensions (5.0×10^4 cfu/mL) was aliquoted in a 96-well round bottom microplate, each of the test substance (fatty acid concentration 10,000 μg/mL) was added at a 1/10 volume to the aliquot and mixed to prepare measurement samples (fatty acid concentration: 1,000 μg/mL). Measurement samples in 2-fold dilution series were prepared using the strain suspension (fatty acid concentration from 0.48 to 1,000 μg/mL). Using a sample containing only the solvent (DMSO) as a control, it was confirmed that the influence of the solvent on the growth of each strain could be neglected.
The measurement samples were incubated under an anaerobic condition at 37° C. for 2 days. The presence or absence of a precipitation of test microbial cells after the incubation was examined and the minimum concentration at which the precipitation of microbial cells […] was regarded as the MIC (μg/mL) of the test substance against the acne bacterium strain.

MIC: ≤ 62.5 mg/L
Compound: CCCCCCCCCCCCCCCCC(=O)O [Heptadecanoic acid (C17:0), Heptadecanoic acid]
